Values joined by “and” are separate entries in the source; they are usually repeats but may differ in a detail not shown here. Identical values can stand only once.
How the values were obtained:
[1] = tested on: Jurkat E6.1 cells; assay: intracellular ROS, ROS-red staining and flow cytometry, Jurkat E6.1; type: cell-based, human; set-up: ROS Negative Cells / ROS Negative Cells (Figure S9 a) / ROS Negative Cells (Figure S9c): unit not given here; conditions: AA 20 µM; rep1, rep2
Experimental: (§1) Data are the mean ± stdev of 3 biological replicates. […] Data are the mean ± stdev of 3 biological replicates.
(§2) Rather, when combined with AVX420, exogenous AA augmented cell death (Fig. 6e). […] The response occurred within 1 h, peaked at 8–12 h, and preceded the loss of cell viability (Fig. S9a, b).
(§3) After treatment, cells were stained with cellular ROS Assay Kit (Cat. No. ab186029; Abcam, Cambridge, United Kingdom) following the manufacturer’s instructions, and ROS-positive cells were quantified by flow cytometry using either the NovoCyte flow cytometer, and Novoexpress Software v1.5.0 from Agilent Technologies (Santa Clara, USA) or the CytoFLEX flow cytometer and CytExpert analysis software v 2.5 from Beckman Coulter (California, United States). An example showing the gating strategy used to assess ROS-Red staining is found in Fig. S9d.

[2] = tested on: Jurkat E6.1 cells; assay: cell viability, CTG assay, Jurkat E6.1; type: cell-based, human; conditions: for viability signal, raw values: Figure 6e
Source text: as §1
Bjørn Tore Gjertsen (University of Bergen, Norway). […] The cell lines were not authenticated.

[3] = tested on: CCRF-CEM cells; assay: cell viability, CTG assay, CCRF-CEM; conditions: for viability signal, raw values: Figure 6e
Experimental: Data are the mean ± stdev of 3 biological replicates. c Viability of healthy T-cells measured by propidium iodide (PI) exclusion. Data are the mean ± stdev of 8 biological replicates for 1–16 µM AVX420, 5 for 32 µM AVX420 and 2 for 0.5 µM Staurosporine (Stau). d Cell viability measured by CTG assay in cells preincubated with 2.5 mM glutathione (GSH) or 2.5 mM N-acetyl cysteine (NAC) for 30 min before addition of 0.5 or 1 µM AVX420, 0.06 µM RSL-3, or 0.06 µM ML-210 for 24 h. Data are the mean ± stdev of 3 biological replicates. P-values were determined by one-way ANOVA with Dunnett’s correction for multiple testing and **** indicates P < 0.0001. e Cell viability measured by CTG assay. CCRF-CEM or Jurkat cells were co-treated with 0.5 µM AVX420 and either arachidonic acid (AA) at concentrations ranging from 1 to 100 µM or a mixture of 9 eicosanoids: 6-keto prostaglandin F1α, Thromboxane B2, prostaglandin F2α, prostaglandin E2, prostaglandin D2, 12(S)-HHTrE, 15(S)-HETE,12(S)-HETE, 5(S)-HETE at a final concentration of 2 ng/mL each (EIC-mix) for 24 h. Data are the mean ± stdev of 3 biological replicates. P-values were determined by two-way ANOVA with Sidak’s correction for multiple comparisons. f Proportion of intracellular ROS-positive cells measured by ROS-red staining and flow cytometry. Cells were treated with indicated concentrations of AVX420 (µM), 1 mM H2O2, 1 µM RSL-3, or 1 µM doxorubicin (dox) for 4 h. Data are the mean ± stdev of 3 biological replicates. g Intracellular ROS measurements in CCRF-CEM cells treated with AVX420 (0.5 µM), AVX002 (8 µM), or AACOCF3 (8 µM) for 4 h.
All cell lines were confirmed to be free of mycoplasma contamination. The cell lines were not authenticated. MV-4-11 were cultured in Iscove’s Modified Dulbecco’s Medium (Sigma, I3390). CCRF-CEM, Jurkat E6.1, and HL-60 cells were cultured in RPMI 1640 Medium RPMI-1640 medium (Sigma, R5886).

[4] = tested on: isolated human PBMCs; assay: eicosanoid release from A23187-stimulated PBMCs (ELISA); type: cell-based; set-up: 6-Keto PGF1a / 12-HETE: unit not given here; conditions: 5 µM; for LTB4 level, PBMCs / PGE2 level, PBMCs / TxB2 level, PBMCs: A23187, individual replicate
Experimental: In PBMCs, the calcium ionophore A23187 stimulated the release of PGE2, TXB2, LTB4, 6-keto prostaglandin F1α (PGF1α), and 12-HETE.
PBMCs were isolated from buffy coats using Lymphoprep as described by the manufacturer ([…] Technologies, Vancouver, Canada). Red blood cells were lysed and removed using RBC lysis buffer (Roche, Basel, Switzerland) and the remaining cells were resuspended in 10 mL of RPMI-1640 supplemented with 5% FBS. The TC20 automated cell counter (BIO-RAD, Hercules, California, USA) was used to count the number of cells and check the viability by staining with trypan blue (0.4%) (NanoEnTek, Waltham, MA, USA). For experiments, 5 × 10^5 cells were seeded in 0.5 mL in 24 well plates with RPMI medium supplemented with 5% FBS, 0.3 mg/mL glutamine, and 0.1 mg/mL gentamicin. Cells were preincubated with inhibitors for 2 h before incubating with 30 µM Ca^2+ ionophore A23187 for 15 min to activate cPLA2α. After incubation, the supernatant was obtained by centrifugation at 5992 × g for 10 min at 4° and stored at −80 °C until assayed for PGE2, LTB4, TxB2, 6-Keto PGF1α, and 12S-HETE using enzyme-linked immunosorbent assays (ELISAs) (Cayman #514435, Cayman #10009292, Cayman #501020, Cayman #15210, and Enzo Lifesciences #ADI-900-050). After an overnight hybridization, the enzymatic conversion of substrate was read at OD420 nm using a Cytation 5 multimode platereader (Biotek Instruments, Winooski, VT, USA). Standard curves fit using 4-parameter logistic regression in myassays.com were used to calculate eicosanoid concentrations.

[5] = tested on: whole blood; assay: eicosanoid release from LPS-stimulated whole blood; type: cell-based, human; set-up: LTB4 / 5-HETE / 11,12-EET / 12-HETE: unit not given here; conditions: for 15-HETE level, whole blood / PGE2 level, whole blood / TxB2 level, whole blood: individual replicate
Source text: In whole blood, bacterial lipopolysaccharide (LPS) stimulated the release of PGE2, thromboxane B2 (TXB2), and 15-hydroxyeicosatetraenoic acid (HETE). […] The levels of leukotriene B4 (LTB4), 12-HETE, 5-HETE and 11,12-epoxyeicosatrienoic acid (EET) were not affected by LPS stimulation but increased when exogenous AA was included, irrespective of the presence of GK420 (Fig. S1a).
Fig. 3 Ex vivo suppression of eicosanoid production by GK420. a Eicosanoid levels (pmol/mL) in the plasma of whole blood pretreated with vehicle (DMSO), 3, 10 or 30 µM GK420,) 10 µM arachidonyl trifluoromethyl ketone (ATK), or 1 μM indomethacin (Indo) before stimulation with 1 µg/mL LPS for 24 h. […] All box and whisker plots show the mean (center line), stdev (box), and min and max values (whiskers) from 4 biological replicates. P-values were determined using RM-one way ANOVA with Dunnett’s correction for multiple comparisons.
Aliquots of 0.4 mL of heparinized whole blood were mixed with 1.6 mL of serum-free RPMI cultivation medium with- or without indomethacin (# I7378, Sigma-Aldrich), GK420, or arachidonyl trifluoromethyl ketone (ATK) (Cayman #62120), prior to the addition of lipopolysaccharides (LPS) (1 μg/mL) to activate the cPLA2α enzyme (LPS was from E. coli 026:B6 γ-irradiated, #L2654, Sigma-Aldrich). Exogenous arachidonic acid (5–10 µM) (#3555, Sigma-Aldrich) was added after 23.5 h, for the final 30 mins of the 24 h stimulation. Following treatment (24 h, 37 °C, 5% CO2), the diluted blood was centrifuged (5992 × g for 10 min at 4 °C) to isolate the plasma from the cell fraction. Plasma samples were stored at −80 °C until analysis. Samples were analyzed at the Lipid Maps Consortium, UCSD according to the standard methods. 200 µL of sample was subjected to solid phase extraction of the eicosanoids using the StrataX solid phase extraction columns from Phenomenex and analyzed by UHPLC-MS/MS using full standards mix.

[6] = tested on: CCRF-CEM cells; assay: intracellular ROS, ROS-red staining and flow cytometry, CCRF-CEM; type: cell-based, human; conditions: CCRF-CEM, 8 µM, 4 h
Experimental: as §1, §2, §3
Figure S9. Intracellular ROS accumulation and cell death. a. Time dependency of the in-crease in iROS following treatment with AVX420 in CCRF-CEM cells as measured by ROS-red stain-ing. Data are the mean ±stdev from ≥2 biological replicates b. […]
±stdev of ≥2 biological replicates c. intracellular ROS measurements in CCRF-CEM cells treated with 0.5 µM AVX420 in the presence of 20 µM arachidonic acid (AA) or 5 µM liproxstatin (Lip) for 4 hours. Data are the mean ± stdev of 2 biological replicates. d. […]
analysis of ROS Red staining by flow cytometry. (i) Gating of live cells using FSC-H versus SSC-H.
(ii) Gating based on ROS Deep Red staining under control conditions and after treatment with (iii) […]
(1 picture or pasted object on this page, not shown here)

## CCCCC/C=C\C/C=C\C/C=C\C/C=C\CCCC(=O)O [AA]
[1]
  ROS Negative Cells (Figure S9c): 97 and 95
  ROS Positive Cells (Figure S9c): 3 and 5
[2]; Jurkat E6.1, AA-1, CTRL (no AVX420)
  viability signal, raw values: 945477,333333333 and 910583,466666667 and 794162,5
[2]; Jurkat E6.1, AA-5, CTRL (no AVX420)
  viability signal, raw values: 896908,333333333 and 842500,133333333 and 777643
[2]; Jurkat E6.1, AA-10, CTRL (no AVX420)
  viability signal, raw values: 858625 and 837920,133333333 and 768078,5
[2]; Jurkat E6.1, AA-20, CTRL (no AVX420)
  viability signal, raw values: 835050 and 861305,466666667 and 719180
[3]; AA-1, CTRL (no AVX420)
  viability signal, raw values: 846644,033333333 and 824265,666666667 and 673546,5
[3]; AA-5, CTRL (no AVX420)
  viability signal, raw values: 927085,7 and 753657,333333333 and 655816,5
[3]; AA-10, CTRL (no AVX420)
  viability signal, raw values: 862846,7 and 802148,333333333 and 667006,5
[3]; AA-20, CTRL (no AVX420)
  viability signal, raw values: 903682,366666667 and 709873,666666667 and 638998,5
[3]; AA-100, CTRL (no AVX420)
  viability signal, raw values: 925589,000333333 and 600588 and 592437,5

## CC(Cc1ccc(O)c(O)c1)C(C)Cc1ccc(O)c(O)c1 (stereo not shown) [NDGA, nordihydroguaiaretic acid, reference compound]
[4]
  LTB4 level, PBMCs: 125.8 pg/mL and 134 pg/mL and 192.1 pg/mL and 116.5 pg/mL
  PGE2 level, PBMCs: 307.5 pg/mL and 191.3 pg/mL and 70.7 pg/mL and 334.8 pg/mL
  TxB2 level, PBMCs: 14617 pg/mL and 11007 pg/mL and 1627.4 pg/mL and 14685.3 pg/mL
[4]; A23187 stimulated
  6-Keto PGF1a: 23.4 and 36.1
  12-HETE: 69724.1 and 75249.5 and 44247.8

## Cc1ccc(-c2cc(C(F)(F)F)nn2-c2ccc(S(N)(=O)=O)cc2)cc1 [Celecoxib, celecoxib, reference compound]
[4]
  LTB4 level, PBMCs: 120.7 pg/mL and 156.9 pg/mL and 348.2 pg/mL and 111.7 pg/mL
  PGE2 level, PBMCs: 146.1 pg/mL and 36.8 pg/mL and 25.1 pg/mL and 59.9 pg/mL
  TxB2 level, PBMCs: 2358.3 pg/mL and 690.2 pg/mL and 212.9 pg/mL and 1753.1 pg/mL

## COc1ccc2c(c1)c(CC(=O)O)c(C)n2C(=O)c1ccc(Cl)cc1 [Indo, indomethacin]
[5]; 1 uM + LPS + AA
  5-HETE: 68.97 and 43.93 and 45.12 and 44.17
  11,12-EET: 9.56 and 11.87 and 10.26 and 11.6
  12-HETE: 64.2 and 109.5 and 89.5 and 60.3
  LTB4: 0.4 and 0.7 and 0.5
  15-HETE level, whole blood: 61.7 pmol/mL and 75.64 pmol/mL and 71.47 pmol/mL and 74.74 pmol/mL
  PGE2 level, whole blood: 11.3 pmol/mL and 12.8 pmol/mL and 10.1 pmol/mL and 11.1 pmol/mL
  TxB2 level, whole blood: 1.2 pmol/ml (2×) and 1.6 pmol/ml and 1 pmol/ml
[5]; 1 uM + LPS
  15-HETE level, whole blood: 0.16 pmol/mL and 0.77 pmol/mL and 0.18 pmol/mL and 0.15 pmol/mL
  PGE2 level, whole blood: 0.05 pmol/mL
  TxB2 level, whole blood: 0.05 pmol/ml (3×) and 0.1 pmol/ml
[5]; whole blood, LPS, in the absence and presence of exogenous free AA
  production of PGE2 and TXB2: suppressed the production

## COC(=O)c1ccc([C@@H]2c3[nH]c4ccccc4c3C[C@@H](C(=O)OC)N2C(=O)CCl)cc1 [RSL-3]
[2]; Jurkat cells, 0.06 µM, VEH
  cell viability (Control = 100): 40 and 34 and 26
[3]; 0.06 µM, VEH
  cell viability (Control = 100): 29 and 32 and 36

## COc1ccc2cc([C@H](C)C(=O)O)ccc2c1 [Naproxen, naproxen, reference compound]
[4]
  LTB4 level, PBMCs: 580.9 pg/mL and 678 pg/mL and 1105.1 pg/mL and 392.2 pg/mL
  PGE2 level, PBMCs: 99.6 pg/mL and 53.1 pg/mL and 27.7 pg/mL and 49.6 pg/mL
  TxB2 level, PBMCs: 2252.6 pg/mL and 716 pg/mL and 281.3 pg/mL and 1975.1 pg/mL

## CCCCC/C=C\C/C=C\C/C=C\C/C=C\CCCC(=O)C(F)(F)F [ATK, arachidonyl trifluoromethyl ketone]
[6]
  intracellular ROS (iROS): increased iROS
[5]; 10 uM + LPS + AA
  5-HETE: 62.15 and 48.84 and 43.16 and 63.64
  11,12-EET: 12.43 and 12.11 and 11.23 and 10.37
  12-HETE: 131.5 and 102.1 and 99.1 and 71.1
  LTB4: 0.7 and 0.6 and 0.8 and 0.5
  15-HETE level, whole blood: 74.26 pmol/mL and 68.85 pmol/mL and 74.36 pmol/mL and 63.52 pmol/mL
  PGE2 level, whole blood: 16.3 pmol/mL and 19.3 pmol/mL and 11.3 pmol/mL and 11.2 pmol/mL
  TxB2 level, whole blood: 13.1 pmol/mL and 35.6 pmol/mL and 22.8 pmol/mL and 21.1 pmol/mL
[5]; 10 uM + LPS
  15-HETE level, whole blood: 0.26 pmol/mL and 1.13 pmol/mL and 0.31 pmol/mL and 0.48 pmol/mL
  PGE2 level, whole blood: 0.1 pmol/mL and 2.4 pmol/mL and 0.5 pmol/mL and 1.1 pmol/mL
  TxB2 level, whole blood: 1.2 pmol/mL and 9.9 pmol/mL and 2.1 pmol/mL and 3.4 pmol/mL

From paper PMC11696576, “Next generation thiazolyl ketone inhibitors of cytosolic phospholipase A2 α for targeted cancer therapy” (Nature Communications, 2025)
